Measurements published in patent US6277867A, “Pesticide compounds, compositions and process for the preparation thereof” (priority 1995, dated 2001).

Assays:
flies = assay: Comparative investigations with known reference synergists on flies treated with carbofuran; type: in vivo; conditions: flies treated with carbofuran and 1000 ng of the synergist
Description: These SR50 ratios were compared to those of the new compounds prepared by us.

[1] = tested on: house fly (Musca domestica); conditions: in vivo, topical_or_ocular, 1440 min
Procedure: Investigation of Synergistic Activity on House Fly (Musca domestica) Following Topical Application
In two parallel experiments 10 female. 2-4 day old house flies were treated on the vental side of their thorax with 0.2 μl of the test solution, with the help of Hamilton MicroLab P microdispenser. Beside fixed synergist dose of 1000 ng/fly the animals were treated with carbofuran at a dose of 20 ng/fly. For solvent cellosolve was used. Selection and counting of the flies were performed under the action of CO2. After treatment the flies were kept in plastic cups covered with tulle. Mortality after 24 hours was expressed in %.

[2] = tested on: cotton bollworm (Helicoverpa armigera); assay: Synergistic activity on cotton bollworm following topical application; conditions: in vivo
Procedure: Investigation of Synergistic Activity on Cotton Bollworm (Helicoverpa armigera) Following Topical Application
Treatment was performed similarity as described in Example 1. but L2 stadium grubs of cotton bollworms (Helicoverpa armigera) were treated as test animals. From the 24 hour dose--mortality data the LD50 (ng/grub) values were determined using probit analysis. None of the synergists acted at the applied 1000 ng/grub dose. Synergist ratio was calculated as the quotient of the LD50 values of carbofuran administered alone, and with the synergist. The experiments were performed in 2-4 replica.

[3] = tested on: resistant house fly, INSEL strain; assay: Synergistic activity on resistant house fly, INSEL strain; type: in vivo, Musca domestica; conditions: active ingredient alone
Procedure: Investigation of Synergistic Activity on Resistant House Fly (Musca domestica) Populations
Investigation was carried out as described in biological Example 1. LD50 values and synergist ratios were determined as given in Example 2.

[4] = tested on: house fly (Musca domestica); assay: Effect of the active ingredient:synergist ratio on the synergistic activity (flies)
Procedure: Effect of the Active Ingredient:Synergist Ratio on the Synergistic Activity
Treatment was performed as described in Example 1. using Hamilton MicroLab P microdispenser. In two parallel experiments 10 female -3 day old flies were treated on the ventral side of their thorax with 0.2 μl test solution. Beside 1000-400-200-80 ng/fly fixed doses of the synergist they were treated with constant 20 ng/fly CARBOFURAN®. Selection and counting of the flies were performed under the action of CO2. After treatment the flies were kept in plastic cups covered with tulle. After 24 hours mortality % was recorded. Depending on the results the experiments were performed in 2-4 replica.

[5] = carbofuran 20 ng/fly + synergist 80 ng/fly
[6] = carbofuran 20 ng/fly + synergist 200 ng/fly
[7] = carbofuran 20 ng/fly + synergist 400 ng/fly
[8] = house fly, in vivo, topical_or_ocular

Compound | Synergist ratio SR50 (flies) | mortality % [1] | Synergist ratio [2] | further results
C#CCOCc1ccc(OC)c(OC)c1 [(2-propynyloxy-methyl)-3,4-dimethoxy-benzene] | 6.58 | – | – | –
CC#CCOCC1Cc2ccccc2O1 (centres unmarked) [Compound 539, 2-(2-butynyloxy-methyl)-2,3-dihydro-benzofuran] | – | 48% | > 5 | –
C#CC(C)OCc1cccc2ccccc12 (centres unmarked) [Compound 389] | – | 27% | > 5 | –
C=CCC1=C(C)[C@@H](OC(=O)[C@@H]2[C@@H](C=C(C)C)C2(C)C)CC1=O [ESBIOL, reference compound] | – | – | – | LD50 [3]: 10653 ng/fly
C#CCOC(=O)c1cccc2ccccc12 [2-propynyll-naphthyl-carboxylate] | 4.11 | – | – | –
C#CCO[C@H](C)c1ccc2ccccc2c1 [Compound 475, R-(+)-2-1[1-(2-propynyloxy)-ethyl]-naphthalene] | – | 47% | > 5 | –
CC#CCO[C@H](C)c1cccc2ccccc12 [Compound 331, R-(+)-1-[1-(2-butynyloxy)-ethyl]-naphthalene] | – | 72% | > 5 | –
CC#CCOCc1c(Cl)cccc1Cl [Compound 503, 2,6-Dichloro-1-(2-butynyloxy-methyl)-benzene] | 21.16 | 95% | > 5 | 24 hour mortality (%) [4, 5]: 37%; 24 hour mortality (%) [4, 6]: 50%; 24 hour mortality (%) [4, 7]: 65%; 24 hour mortality (%) [4, 8]: 93%
CC#CCOC(c1ccc2c(c1)OCO2)C1CCCCC1 (centres unmarked) [Compound 554, 5-[(But-2-ynyloxy)-cyclohexyl-methyl]-1,3-benzodioxole] | – | 58% | > 5 | –
C#CCCOc1cccc2ccccc12 [1-naphthyl 3-butynyl ether] | 7.95 | – | – | –
CC#CCCOc1cccc2c1OC(C)(C)C2 [Compound 418, 2,3-dihydro-2,2-dimethyl-7-(3-pentynyloxy)-benzofuran] | 20.5 | 63% | > 5 | –
CC#CCOC(C)c1cccc2ccccc12 (centres unmarked) [Compound 292, 1-[1-(2-butynyloxy)-ethyl]-naphthalene] | – | 72% | > 5 | –
CC#CCNC(=O)c1ccc2ccccc2c1 [Compound 535, N-(2-Butynyl)-2-naphthamide] | – | 27% | > 5 | –
C#CCOC(=O)c1ccc2c(c1)OCO2 [Compound 501, 2-Propynyl 1,3-benzodioxol-5-carboxylate] | – | 53% | > 5 | 24 hour mortality (%) [4, 5]: 60%; 24 hour mortality (%) [4, 6]: 75%; 24 hour mortality (%) [4, 7]: 80%; 24 hour mortality (%) [4, 8]: 80%
C#CCO[C@@H](C)c1ccc2ccccc2c1 [Compound 474, S-(-)-2-[1-(2-propynyloxy)-ethyl]-naphthalene] | – | 50% | > 5 | –
CC#CCO[C@@H](C)c1ccc2ccccc2c1 [Compound 456, S-(-)-2-[1-(2-butynyloxy)-ethyl]-naphthalene] | – | 47% | > 5 | –
CC#CCO[C@@H](C)c1cccc2ccccc12 [Compound 330, S-(-)-1-[1-(2-butynyloxy)-ethyl]-naphthalene] | – | 62% | > 5 | –
CC#CCOc1ccc2ccccc2c1 [2-naphthyl 2-butynyl ether] | 7.72 | – | – | –
CC#CCOCC1COc2ccccc2O1 (centres unmarked) [Compound 510, 2-[(2-Butynyloxy)-methyl]-1,4-benzodioxane] | 18.32 | 75% | > 5 | –
C#CCCOc1ccc([N+](=O)[O-])cc1 [Compound 547, 1-(3-butynyloxy)-4-nitro-benzene] | – | 47% | – | –
CC#CCN1C(=O)c2ccccc2C1=O [Compound 537, N-(But-2-ynyl)-phthalimide] | – | – | > 5 | –
CC#CCOC(C)c1ccc2ccccc2c1 (centres unmarked) [Compound 293, 2-[1-(2-butynyloxy)-ethyl]-naphthalene] | – | 45% | > 5 | –
CC#CCOC1CCCc2ccccc21 (centres unmarked) [Compound 498, 1-(2-Butynyloxy)-1,2,3,4-tetrahydro-naphthalene] | – | 70% | > 5 | –

Compound | Synergist ratio SR50 (flies) | mortality % [1] | Synergist ratio [2] | further results
C#CCOCC1COc2ccccc2O1 (centres unmarked) [2-[(2-propynyloxy)methyl]-1,4-benzodioxane] | 5.58 | – | – | –
CC#CCON=C(C)c1ccc(OC)c(OC)c1 [Compound 572, 3,4-Dimethoxy-acetophenonoxym-(2-butynyl)-ether] | – | 55% | > 5 | –
5-[(2-propynyl)-methyl]-1,3-benzodioxole | 10.60 | – | – | –
CC#CCCOc1ccc2ccccc2c1 [2-naphthyl 3-pentynyl ether] | 9.97 | – | – | –
CC#CCNC(=O)c1ccc2c(c1)OCO2 [Compound 523, N-(2-butynyl) 3,4-methylene-dioxy-benzamide] | – | 17% | > 5 | –
CC#CCCOc1ccc([N+](=O)[O-])cc1 [Compound 540, 1-(3-pentynyloxy)-4-nitro-benzene] | – | 60% | > 5 | –
C#CCCOc1cccc2c1OC(C)(C)C2 [Compound 377, 2,3-dihydro, 2,2-dimethyl-7-(3-butynyloxy)-benzofuran] | – | 57% | > 5 | –
CC#CCNC(=O)c1cccc2ccccc12 [Compound 542, N-(2-Butynyl)-1-naphthamide] | – | 42% | > 5 | –
CC#CCOC1CCc2ccccc21 (centres unmarked) [Compound 479, 1-(2-Butynyloxy)-indane] | – | 58% | > 5 | –
C#CCOc1cccc2ccccc12 [1-naphthyl 2-propargyl ether] | 6.52 | – | – | –
C#CCOCc1c(Cl)cccc1Cl [(2,6-dichlorophenyl)methyl 2-propynyl ether] | 20.92 | – | – | –
CC#CCOC(c1cccc2ccccc12)C(C)C (centres unmarked) [Compound 472, 1-[2-methyl-1-(2-butynyloxy)-propyl]-naphthalene] | – | 68% | > 5 | –
C#CCOc1cccc2c1OC(C)(C)C2 [2,3-dihydro-2,2-dimethyl-7-(2-propynyloxy)benzofurane] | 1.8 | – | – | –
CC#CCOC(c1ccccc1)c1ccc2c(c1)OCO2 (centres unmarked) [Compound 555, 5-[(But-2-ynyloxy)-phenyl-methyl]-1,3-benzodioxole] | – | 90% | > 5 | –
CC#CCOC(CC)c1cccc2ccccc12 (centres unmarked) [Compound 454, 1-[1-(2-butynyloxy)-propyl]-naphthalene] | – | 75% | > 5 | 24 hour mortality (%) [4, 5]: 40%; 24 hour mortality (%) [4, 6]: 45%; 24 hour mortality (%) [4, 7]: 60%; 24 hour mortality (%) [4, 8]: 75%
C#CCOC(C)c1ccc2ccccc2c1 (centres unmarked) [Compound 256, 2-[1-(2-propynyloxy)-ethyl]-naphthalene] | – | 32% | > 5 | –
C#CCN(C)C(C)c1ccc2ccccc2c1 (stereo not drawn) [Compound 251, N-α-dimethyl-N-2-propynyl-β-naphthyl-methylamine] | – | 37% | > 5 | –
C#CCON=C(C)c1cccc2ccccc12 [1-acetonaphthon-oxim (2-propynyl) ether] | 7.79 | – | – | –
CC#CCOC(=O)c1ccc2c(c1)OCO2 [Compound 502, 2-Butynyl 1,3-benzodioxol-5-carboxylate] | 6.28 | 47% | > 5 | –
CC#CCO[C@H](C)c1ccc2ccccc2c1 [Compound 455, R-(+)-2-[1-(2-butynyloxy)-ethyl]-naphthalene] | – | 70% | > 5 | 24 hour mortality (%) [4, 5]: 25%; 24 hour mortality (%) [4, 6]: 48%; 24 hour mortality (%) [4, 7]: 63%; 24 hour mortality (%) [4, 8]: 77%
C#CCNC(=O)c1cccc2ccccc12 [Compound 541, N-(2-Propynyl)-1-naphthamide] | – | 46% | > 5 | –
CC#CCON=C(C)c1cccc2ccccc12 [Compound 571, 1-Aceto-naphthon-oxim-(2-butynyl)-ether] | 10.02 | 53% | > 5 | –
C#CCOCc1cccc2ccccc12 [1-naphthylmethyl 2-propynyl ether] | 5.28 | – | – | –
